Assay: xn = mol fraction of the nth substance listed
Settings: 101 kPa

CCCCCC[n+]1ccn(C)c1.O=S(=O)([N-]S(=O)(=O)C(F)(F)F)C(F)(F)F + ClC(Cl)Cl
electrical conductivity (288.5 K, x1 = 0.018): 0.021 S/m | electrical conductivity (288.5 K, x1 = 0.137): 0.302 S/m | electrical conductivity (288.5 K, x1 = 0.297): 0.46 S/m | electrical conductivity (288.5 K, x1 = 0.604): 0.255 S/m | electrical conductivity (288.5 K, x1 = 0.713): 0.211 S/m | electrical conductivity (288.5 K, x1 = 0.848): 0.169 S/m | electrical conductivity (288.5 K, x1 = 0.911): 0.153 S/m | electrical conductivity (288.5 K, x2 = 0.014): 0.137 S/m | electrical conductivity (298.2 K, x1 = 0.034): 0.076 S/m | electrical conductivity (298.2 K, x1 = 0.167): 0.477 S/m | electrical conductivity (298.2 K, x1 = 0.256): 0.582 S/m | electrical conductivity (298.2 K, x1 = 0.379): 0.524 S/m | electrical conductivity (298.2 K, x1 = 0.562): 0.369 S/m | electrical conductivity (298.2 K, x1 = 0.732): 0.295 S/m | electrical conductivity (298.2 K, x1 = 0.87): 0.245 S/m | electrical conductivity (298.2 K, x1 = 0.924): 0.233 S/m | electrical conductivity (298.2 K, x1 = 0.962): 0.221 S/m | electrical conductivity (298.2 K, x2 = 0.008): 0.213 S/m | electrical conductivity (308.2 K, x1 = 0.019): 0.04 S/m | electrical conductivity (308.2 K, x1 = 0.123): 0.501 S/m | electrical conductivity (308.2 K, x1 = 0.214): 0.686 S/m | electrical conductivity (308.2 K, x1 = 0.318): 0.701 S/m | electrical conductivity (308.2 K, x1 = 0.4): 0.652 S/m | electrical conductivity (308.2 K, x1 = 0.585): 0.431 S/m | electrical conductivity (308.2 K, x1 = 0.807): 0.378 S/m | electrical conductivity (308.2 K, x1 = 0.905): 0.327 S/m | electrical conductivity (308.2 K, x1 = 0.949): 0.336 S/m | electrical conductivity (308.2 K, x2 = 0.015): 0.326 S/m | electrical conductivity (318.5 K, x1 = 0.03): 0.072 S/m | electrical conductivity (318.5 K, x1 = 0.2): 0.785 S/m | electrical conductivity (318.5 K, x1 = 0.247): 0.835 S/m | electrical conductivity (318.5 K, x1 = 0.446): 0.788 S/m | electrical conductivity (318.5 K, x1 = 0.684): 0.55 S/m | electrical conductivity (318.5 K, x1 = 0.815): 0.529 S/m | electrical conductivity (318.5 K, x1 = 0.92): 0.479 S/m

— a compilation of properties of binary mixtures (doi:10.1021/acs.jpcb.6b06974)
